Values joined by “and” are separate entries in the source; they are usually repeats but may differ in a detail not shown here. Identical values can stand only once.
What was measured:
Details in all cases: incubation time: 72 h
HCC1599 = experiment: drug sensitivity score (DSS), CellTiter-Blue viability (DSS (AUC-based score)); higher = stronger viability inhibition; extreme values may be limits of the assay
Procedure: (§1)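 DSRT with the CellTiter-Blue (resazurin reduction) viability readout, fluorescence 560/590 nm, 72 h incubation. Plates were normalised to DMSO and benzethonium chloride controls. DSS is computed from the area under the fitted dose-response curve (5 or 9 concentrations).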

CAL-120 [1] = experiment: as above
Procedure: as §1

HCC1937 [2] = experiment: as above
Procedure: as §1

MDA-MB-453 [3] = experiment: as above
Procedure: as §1

BT-549 [4] = experiment: as above
Procedure: as §1

Hs578T [5] = experiment: as above
Procedure: as §1

HDQ-P1 = experiment: as above
Procedure: as §1

MDA-MB-231 [6] = experiment: as above
Procedure: as §1

MDA-MB-468 = experiment: as above
Procedure: as §1

DU-4475 = experiment: as above
Procedure: as §1

SK-BR-3 = experiment: as above
Procedure: as §1

MFM-223 [7] = experiment: as above
Procedure: as §1

CAL-51 [8] = experiment: as above
Procedure: as §1

MDA-MB-436 [9] = experiment: as above
Procedure: as §1

BT-474 [10] = experiment: as above
Procedure: as §1

HCC1143 = experiment: as above
Procedure: as §1

CAL-85-1 = experiment: as above
Procedure: as §1

CAL-148 = experiment: as above
Procedure: as §1

CAL-120 [11] = experiment: normalised response (% of control), CellTox Green; higher = less cell death (100 = DMSO, 0 = benzethonium chloride kill control)
In short: (§2)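 Breast cancer cell lines were exposed for 72 h in 384-well plates to compound at 5 concentrations, 10-fold apart, covering a 10,000-fold range fixed for each compound. Plates were read for CellTox Green fluorescence and CellTiter-Glo luminescence and normalised to 0.1 % DMSO (100) and a positive kill control (0). Each value is the normalised signal at one concentration of the series.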

HCC1937 [12] = experiment: as above
In short: as §2

MDA-MB-453 [13] = experiment: as above
In short: as §2

BT-549 [14] = experiment: as above
In short: as §2

Hs578T [15] = experiment: as above
In short: as §2

MDA-MB-231 [16] = experiment: as above
In short: as §2

MFM-223 [17] = experiment: as above
In short: as §2

CAL-51 [18] = experiment: as above
In short: as §2

MDA-MB-436 [19] = experiment: as above
In short: as §2

BT-474 [20] = experiment: as above
In short: as §2

Structure (SMILES) | drug sensitivity score (HCC1599) | drug sensitivity score (CAL-120 [1]) | drug sensitivity score (HCC1937 [2]) | drug sensitivity score (MDA-MB-453 [3]) | drug sensitivity score (BT-549 [4]) | drug sensitivity score (Hs578T [5]) | drug sensitivity score (HDQ-P1) | drug sensitivity score (MDA-MB-231 [6]) | drug sensitivity score (MDA-MB-468) | drug sensitivity score (DU-4475) | drug sensitivity score (SK-BR-3) | drug sensitivity score (MFM-223 [7]) | drug sensitivity score (CAL-51 [8]) | drug sensitivity score (MDA-MB-436 [9]) | drug sensitivity score (BT-474 [10]) | drug sensitivity score (HCC1143) | drug sensitivity score (CAL-85-1) | drug sensitivity score (CAL-148) | normalised response (CAL-120 [11]) [%] | normalised response (HCC1937 [12]) [%] | normalised response (MDA-MB-453 [13]) [%] | normalised response (BT-549 [14]) [%] | normalised response (Hs578T [15]) [%] | normalised response (MDA-MB-231 [16]) [%] | normalised response (MFM-223 [17]) [%] | normalised response (CAL-51 [18]) [%] | normalised response (MDA-MB-436 [19]) [%] | normalised response (BT-474 [20]) [%]
COc1ccc(S(=O)(=O)Nc2cccnc2Nc2ccc(O)cc2)cc1 [ABT-751] | 5.55 | 14.5 | 14.9 | 17.9 | 6.81 | 17.3 | 12 | 14.3 | 8.8 | 10.1 | 18.5 | 8.15 | 11.8 | 10.4 | 7 | 9.7 | 13.7 | 10.7 | – | – | – | – | – | – | – | – | – | –
Cc1cc(Nc2nc(N[C@@H](C)c3ncc(F)cn3)ncc2Cl)[nH]n1 [AZD1480] | 1.53 | 0 | 0 | 0.912 | 0 | 0 | 0 | 0 | 0 | 0.841 | 0 | 7.5 | 0 | 0 | 0 | 0 | 0 | 0 | – | – | – | – | – | – | – | – | – | –
CNC(=O)c1ccccc1Sc1ccc2c(/C=C/c3ccccn3)n[nH]c2c1 [Axitinib] | 0 | 0 | 5.79 | 7.1 | 4.37 | 0 | 4.73 | 2.62 | 1.45 | 6.24 | 0 | 11.4 | 6.1 | 13.7 | 0 | 2.06 | 4.41 | 5.17 | – | – | – | – | – | – | – | – | – | –
CC(O)(CS(=O)(=O)c1ccc(F)cc1)C(=O)Nc1ccc(C#N)c(C(F)(F)F)c1 (stereo not given) [Bicalutamide] | 0 | 0 | 0 | 0 | 0 | 0 | 0 | 0 | 4.86e-06 | 0 | 0 | 0 | 0 | 0 | 0 | 0 | 0 | 0 | – | – | – | – | – | – | – | – | – | –
CCNC(=O)CCC/C=C\C[C@@H]1[C@@H](/C=C/[C@@H](O)CCc2ccccc2)[C@H](O)C[C@@H]1O [Bimatoprost] | 0 | 0 | 0 | 0 | 0 | 0 | 0 | 0 | 0 | 0 | 0 | 0 | 0 | 0 | 0 | 0 | 0 | 0 | – | – | – | – | – | – | – | – | – | –
COc1cc(Nc2c(C#N)cnc3cc(OCCCN4CCN(C)CC4)c(OC)cc23)c(Cl)cc1Cl [Bosutinib] | 3.68 | 8.36 | 6.37 | 6.37 | 5.28 | 3.1 | 6.6 | 6.93 | 5.03 | 2.82 | 7.78 | 4.68 | 3.35 | 4.98 | 5.59 | 5.05 | 5.55 | 7.34 | – | – | – | – | – | – | – | – | – | –
CCN(CC)CCCC(C)Nc1ccnc2cc(Cl)ccc12 (stereo not given) [Chloroquine] | 0 | 0 | 0 | 0 | 0 | 0 | 0 | 0 | 0 | 0 | 0 | 0 | 0 | 0 | 0 | 0 | 0 | 0 | – | – | – | – | – | – | – | – | – | –
Cn1cc(C2=C(c3cn(C4CCN(Cc5ccccn5)CC4)c4ccccc34)C(=O)NC2=O)c2ccccc21 [Enzastaurin] | 0 | 0 | 5.39 | 7.69 | 6.55 | 9.93 | 1.6 | 0 | 0 | 0 | 10.1 | 6.5 | 0 | 9.96 | 2.68 | 5.14 | 0 | 5.06 | – | – | – | – | – | – | – | – | – | –
CC(C)(C)NC(=O)[C@H]1CC[C@H]2[C@@H]3CC[C@H]4NC(=O)C=C[C@]4(C)[C@H]3CC[C@]12C [Finasteride] | 0 | 0 | 0 | 1.81 | 0 | 0 | 0 | 0 | 0 | 3.01 | 0 | 1.79 | 1.63 | 0 | 0 | 0 | 0 | 1.45 | – | – | – | – | – | – | – | – | – | –
Nc1ccn([C@@H]2O[C@H](CO)[C@@H](O)C2(F)F)c(=O)n1 [Gemcitabine] | 7.74 | 14.7 | 16.2 | 11 | 6.97 | 7.89 | 0 | 7.17 | 16.1 | 10.7 | 13.4 | 2.55 | 17.6 | 9.62 | 0 | 13.2 | 12 | 16.9 | – | – | – | – | – | – | – | – | – | –
CC(C)C[C@H](NC(=O)[C@@H](COC(C)(C)C)NC(=O)[C@H](Cc1ccc(O)cc1)NC(=O)[C@H](CO)NC(=O)[C@H](Cc1c[nH]c2ccccc12)NC(=O)[C@H](Cc1cnc[nH]1)NC(=O)[C@@H]1CCC(=O)N1)C(=O)N[C@@H](CCCNC(=N)N)C(=O)N1CCC[C@H]1C(=O)NNC(N)=O [Goserelin] | 0 | 0 | 0 | 0 | 0 | 0 | 0 | 0 | 0 | 0 | 0 | 0 | 0 | 0 | 0 | 0 | 0 | 0 | – | – | – | – | – | – | – | – | – | –
CC1(C)CCC(c2ccc(Cl)cc2)=C(CN2CCN(c3ccc(C(=O)NS(=O)(=O)c4ccc(N[C@H](CCN5CCOCC5)CSc5ccccc5)c(S(=O)(=O)C(F)(F)F)c4)cc3)CC2)C1 [Navitoclax] (1000 nM) | – | – | – | – | – | – | – | – | – | – | – | – | – | – | – | – | – | – | 50.3 | 92.8 | 99.8 | 95.6 | 84.3 | -19.3 | 95.8 | 60.1 | 101 | 89.1
CC1(C)CCC(c2ccc(Cl)cc2)=C(CN2CCN(c3ccc(C(=O)NS(=O)(=O)c4ccc(N[C@H](CCN5CCOCC5)CSc5ccccc5)c(S(=O)(=O)C(F)(F)F)c4)cc3)CC2)C1 [Navitoclax] (10000 nM) | – | – | – | – | – | – | – | – | – | – | – | – | – | – | – | – | – | – | 13.6 | 69.4 | 86.5 | 97.3 | 101 | -60.4 | 66.2 | 31.9 | 64.8 | 70.3
Cc1cn(-c2cc(NC(=O)c3ccc(C)c(Nc4nccc(-c5cccnc5)n4)c3)cc(C(F)(F)F)c2)cn1 [Nilotinib] (1000 nM) | – | – | – | – | – | – | – | – | – | – | – | – | – | – | – | – | – | – | 97 | 131 | 106 | 85.9 | 104 | 68.5 | 103 | 86.3 | 82.2 | 88.8
Cc1cn(-c2cc(NC(=O)c3ccc(C)c(Nc4nccc(-c5cccnc5)n4)c3)cc(C(F)(F)F)c2)cn1 [Nilotinib] (10000 nM) | – | – | – | – | – | – | – | – | – | – | – | – | – | – | – | – | – | – | 101 | 93.1 | 102 | 80.7 | 64.7 | 84.3 | 104 | 92.6 | 108 | 100
O=C(CCCCCCC(=O)Nc1ccccc1)NO [Vorinostat] | 6.85 and 2.71 | 9.7 and 7.55 | 6.22 and 7.75 | 11.4 and 11.6 | 4.56 and 4.64 | 5.57 and 5.8 | 3.82 and 8.64 | 5.31 and 5.33 | 6.66 and 5.72 | – | 14.2 and 12.8 | 7.1 and 6.77 | 0.68 and 0.982 | 8.55 and 3.68 | 6.34 and 8.1 | 4.79 and 6.75 | 4.59 and 3.98 | 5.26 and 4.8 | – | – | – | – | – | – | – | – | – | –
O=C(CCCCCCC(=O)Nc1ccccc1)NO [Vorinostat] (1000 nM) | – | – | – | – | – | – | – | – | – | – | – | – | – | – | – | – | – | – | 95.1 | 122 | 93.9 | 115 | 78.8 | 83.2 | 97.3 | 96.6 | 73.5 | 96.8
O=C(CCCCCCC(=O)Nc1ccccc1)NO [Vorinostat] (10000 nM) | – | – | – | – | – | – | – | – | – | – | – | – | – | – | – | – | – | – | 36.3 | 84.3 | 82.7 | 74.8 | 60.6 | -55.1 | 80.3 | -6.76 | 77.5 | 32.6

Source: the supplement of paper PMC4862054
